Data: patent US10300071B2, “Compositions and methods for inhibition of mycobacteria” (priority 2014, dated 2019)
≈ marks a conversion by molar mass, not a printed value. Where two headings read alike, the source gives them in different places.

Legend:
Mtb strain mc^2-7000 = assay: microbe, parasite or virus in culture; assay type: cell-based, Mycobacterium tuberculosis; conditions: for MIC: 6 days incubation at 37° C., resazurin, read on the 7th day; for whole Mycobacterium tuberculosis cell inhibition: preliminary studies of commercially available herbicides
Mtb AccD6 = Mtb AccD6 (Mycobacterium tuberculosis, UniProt P9WQH5); assay: biochemical; assay type: biochemical; conditions: for IC50: 300 μM malonyl-CoA, inhibitor 10 μM to 2000 μM; for inhibition at 20 µM: read-out: inhibition at 20 uM; for Mtb AccD6 inhibition: preliminary studies of commercially available herbicides
[1] = Mycobacterium tuberculosis, 144 h, read-out: MIC

Sequence of Mtb AccD6 (P9WQH5 whole entry, looked up): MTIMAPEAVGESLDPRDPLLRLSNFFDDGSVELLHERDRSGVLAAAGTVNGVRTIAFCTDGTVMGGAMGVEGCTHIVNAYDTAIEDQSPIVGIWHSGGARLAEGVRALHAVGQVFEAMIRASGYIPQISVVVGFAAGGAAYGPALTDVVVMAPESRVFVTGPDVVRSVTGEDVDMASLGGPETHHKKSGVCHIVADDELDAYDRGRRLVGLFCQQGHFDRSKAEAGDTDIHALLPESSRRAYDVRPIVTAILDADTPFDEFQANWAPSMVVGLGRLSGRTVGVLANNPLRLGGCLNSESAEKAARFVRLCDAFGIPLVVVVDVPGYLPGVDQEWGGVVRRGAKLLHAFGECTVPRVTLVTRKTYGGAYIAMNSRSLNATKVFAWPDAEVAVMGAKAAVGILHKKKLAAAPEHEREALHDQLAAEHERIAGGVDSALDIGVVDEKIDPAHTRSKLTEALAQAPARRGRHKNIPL

Row | Molecule | MIC (Mtb strain mc^2-7000; [1]) | IC50 (Mtb AccD6; read-out: IC50) | concentrations at which not toxic, s. cerevisiae cytotoxicity (S. cerevisiae) | other results
1 | CC(C)NC(=O)Nc1ccc(Oc2nc3ccc(Br)cc3s2)cc1 [NZ-359, 1-{4-[(6-bromo-1,3-benzothiazol-2-yl)oxy]phenyl}-3-(propan-2-yl)urea] | > 50 µM | 8.4 µM | ≥ 100 µM | –
2 | CNC(=O)NCc1ccc(Oc2nc3ccc(Cl)cc3s2)cc1 [NZ-350, 1-({4-[(6-chloro-1,3-benzothiazol-2-yl)oxy]phenyl}methyl)-3-methylurea] | – | 1.6 µM | ≥ 100 µM | MIC (Mtb strain mc^2-7000): Not Active
3 | CC(C)(C)OC(=O)NCc1ccc(Oc2nc3ccc(Cl)cc3s2)cc1 [NZ-347, tert-butyl N-({4-[(6-chloro-1,3-benzothiazol-2-yl)oxy]phenyl}methyl)carbamate] | 15 µM (≈ 5.86 µg/mL) | – | ≥ 100 µM | IC50 (Mtb AccD6): Not Active
4 | CNC(=O)Nc1ccc(Oc2nc3ccc(Cl)cc3s2)cc1 [NZ-353, 1-{4-[(6-chloro-1,3-benzothiazol-2-yl)oxy]phenyl}-3-methylurea] | – | 4 µM | ≥ 100 µM | MIC (Mtb strain mc^2-7000): Not Active
5 | CN1CCN(C(=O)COc2ccc(Oc3cnc4cc(Cl)ccc4n3)cc2)CC1 [NZ-278, 2-{4-[(6-chloroquinoxalin-2-yl)oxy]phenoxy}-1-(4-methylpiperazin-1-yl)ethan-1-one] | 3.1 µM (≈ 1.28 µg/mL) | 1.1 µM | – | –
6 | COC(=O)/C=C/c1ccc(Oc2nc3ccc(Cl)cc3s2)cc1 [NZ-281, methyl (2E)-3-{4-[(6-chloro-1,3-benzothiazol-2-yl)oxy]phenyl}prop-2-enoate] | 50 µM (≈ 17.3 µg/mL) | – | – | inhibition at 20 µM (Mtb AccD6): 30%
7 | CCC/C(=N\OCC)C1=C(O)CC(CC(C)SCC)CC1=O (stereo not drawn) [sethoxydim, reference compound] | – | – | – | whole Mycobacterium tuberculosis cell inhibition (Mtb strain mc^2-7000): none exhibited whole Mycobacterium tuberculosis cell inhibition; Mtb AccD6 inhibition (Mtb AccD6): only haloxyfop exhibited Mtb AccD6 inhibition
8 | NCc1ccc(Oc2nc3ccc(Cl)cc3s2)cc1 [NZ-348, {4-[(6-chloro-1,3-benzothiazol-2-yl)oxy]phenyl}methanamine] | 2 µM (≈ 0.582 µg/mL) | – | 25 to 50 µM | IC50 (Mtb AccD6): Not Active
9 | CC(C(=O)NCC(O)CO)c1ccc(Oc2nc3ccc(Cl)cc3s2)cc1 (stereo not drawn) [NZ-372, 2-{4-[(6-chloro-1,3-benzothiazol-2-yl)oxy]phenyl}-N-(2,3-dihydroxypropyl)propanamide] | 4.67 µM (≈ 1.9 µg/mL) | 2.75 µM | ≥ 100 µM | –
10 | O=C(O)/C=C/c1ccc(Oc2nc3ccc(Cl)cc3s2)cc1 [NZ-283, (2E)-3-{4-[(6-chloro-1,3-benzothiazol-2-yl)oxy]phenyl}prop-2-enoic acid] | 12 µM (≈ 3.98 µg/mL) | – | – | inhibition at 20 µM (Mtb AccD6): 33%
11 | O=C(COc1ccc(Oc2cnc3cc(Cl)ccc3n2)cc1)N1CCNCC1 [NZ-277, 2-{4-[(6-chloroquinoxalin-2-yl)oxy]phenoxy}-1-(piperazin-1-yl)ethan-1-one] | 12.5 µM (≈ 4.99 µg/mL) | 5.6 µM | – | –
12 | cyhalofop [reference compound] | – | – | – | whole Mycobacterium tuberculosis cell inhibition (Mtb strain mc^2-7000): none exhibited whole Mycobacterium tuberculosis cell inhibition; Mtb AccD6 inhibition (Mtb AccD6): only haloxyfop exhibited Mtb AccD6 inhibition
13 | NC(=O)COc1ccc(Oc2cnc3cc(Cl)ccc3n2)cc1 [NZ-258, 2-{4-[(6-chloroquinoxalin-2-yl)oxy]phenoxy}acetamide] | 50 µM (≈ 16.5 µg/mL) | 2.1 to 3.1 µM | – | –
14 | CC(C)NC(=O)Nc1ccc(Oc2nc3ccccc3s2)cc1 [NZ-360, 1-[4-(1,3-benzothiazol-2-yloxy)phenyl]-3-(propan-2-yl)urea] | 4.3 µM (≈ 1.41 µg/mL) | 13.3 µM | ≥ 100 µM | –
15 | CC(C)NC(=O)Cn1ccc(Oc2nc3ccc(Cl)cc3s2)cc1=O [NZ-404, 2-{4-[(6-chloro-1,3-benzothiazol-2-yl)oxy]-2-oxo-1,2-dihydropyridin-1-yl}-N-(propan-2-yl)acetamide] | – | 14.4 µM | – | % at 50 uM (Mtb strain mc^2-7000): 38% at 50 uM
16 | COC(C(=O)O)c1ccc(Oc2nc3ccc(Cl)cc3s2)cc1 (stereo not drawn) [NZ-356, 2-{4-[(6-chloro-1,3-benzothiazol-2-yl)oxy]phenyl}-2-methoxyacetic acid] | 25 µM (≈ 8.74 µg/mL) | 1.7 µM | ≥ 100 µM | –
17 | Nc1ccc(Oc2nc3ccc(Cl)cc3s2)cc1 [NZ-352, 4-[(6-chloro-1,3-benzothiazol-2-yl)oxy]aniline] | 1.5 µM (≈ 0.415 µg/mL) | – | 25 to 50 µM | IC50 (Mtb AccD6): Not Active
18 | O=C(COc1ccc(Oc2cnc3cc(Cl)ccc3n2)cc1)NS(=O)(=O)c1ccccc1 [NZ-276, N-(benzenesulfonyl)-2-{4-[(6-chloroquinoxalin-2-yl)oxy]phenoxy}acetamide] | 3.1 µM (≈ 1.46 µg/mL) | 7.3 µM | – | –
19 | CN(C)C(=O)COc1ccc(Oc2cnc3cc(Cl)ccc3n2)cc1 [NZ-262, 2-{4-[(6-chloroquinoxalin-2-yl)oxy]phenoxy}-N,N-dimethylacetamide] | > 25 µM | 1.8 µM | – | –

Row | Molecule | MIC (Mtb strain mc^2-7000; [1]) | IC50 (Mtb AccD6; read-out: IC50) | concentrations at which not toxic, s. cerevisiae cytotoxicity (S. cerevisiae) | other results
20 | O=C(COc1ccc(Oc2cnc3cc(Cl)ccc3n2)cc1)NO [NZ-286, 2-{4-[(6-chloroquinoxalin-2-yl)oxy]phenoxy}-N-hydroxyacetamide] | 3 µM (≈ 1.04 µg/mL) | 1.4 µM | – | –
21 | O=C(O)c1ccc(Oc2nc3ccc(Cl)cc3s2)cc1 [NZ-288, 4-[(6-chloro-1,3-benzothiazol-2-yl)oxy]benzoic acid] | 25 µM (≈ 7.64 µg/mL) | 12 µM | – | –
22 | CONC(=O)Nc1ccc(Oc2cnc3cc(Cl)ccc3n2)cc1 [NZ-344, 1-{4-[(6-chloroquinoxalin-2-yl)oxy]phenyl}-3-methoxyurea] | 25 µM (≈ 8.62 µg/mL) | 4.1 µM | – | –
23 | CNC(=O)COc1ccc(Oc2cnc3cc(Cl)ccc3n2)cc1 [NZ-267, 2-{4-[(6-chloroquinoxalin-2-yl)oxy]phenoxy}-N-methylacetamide] | > 25 µM | 2.4 µM | – | –
24 | CS(=O)(=O)NC(=O)COc1ccc(Oc2cnc3cc(Cl)ccc3n2)cc1 [NZ-259, 2-{4-[(6-chloroquinoxalin-2-yl)oxy]phenoxy}-N-methanesulfonylacetamide] | > 50 µM | 1.6 to 2.6 µM | – | –
25 | O=C(COc1ccc(Oc2cnc3cc(Cl)ccc3n2)cc1)N1CCOCC1 [NZ-266, 2-{4-[(6-chloroquinoxalin-2-yl)oxy]phenoxy}-1-(morpholin-4-yl)ethan-1-one] | > 12.5 µM | 0.99 µM | – | –
26 | CC(C)NC(=O)Cc1ccc(O)cc1Oc1nc2ccc(F)cc2s1 [NZ-406, 2-{2-[(6-fluoro-1,3-benzothiazol-2-yl)oxy]-4-hydroxyphenyl}-N-(propan-2-yl)acetamide] | – | – | – | % at 50 uM (Mtb strain mc^2-7000): 46% at 50 uM; IC50 (Mtb AccD6): Not Active
27 | Cc1ccc2nc(Oc3ccc(NC(=O)NC(C)C)cc3)sc2c1 [NZ-358, 1-{4-[(6-methyl-1,3-benzothiazol-2-yl)oxy]phenyl}-3-(propan-2-yl)urea] | 5.8 µM (≈ 1.98 µg/mL) | 20 µM | ≥ 100 µM | –
28 | COC(=O)C(OC)c1ccc(Oc2nc3ccc(Cl)cc3s2)cc1 (stereo not drawn) [NZ-355, methyl 2-{4-[(6-chloro-1,3-benzothiazol-2-yl)oxy]phenyl}-2-methoxyacetate] | 4.5 µM (≈ 1.64 µg/mL) | 20 µM | ≥ 100 µM | –
29 | CC(C)=NOCCOC(=O)C(C)Oc1ccc(Oc2cnc3cc(Cl)ccc3n2)cc1 (stereo not drawn) [propaquizafop, 2-{[(propan-2-ylidene)amino]oxy}ethyl 2-{4-[(6-chloroquinoxalin-2-yl)oxy]phenoxy}propanoate, reference compound] | 1.56 µM (≈ 0.692 µg/mL) | 2.1 µM | – | –
30 | CN(C)C(=O)NCc1ccc(Oc2nc3ccc(Cl)cc3s2)cc1 [NZ-349, 1-({4-[(6-chloro-1,3-benzothiazol-2-yl)oxy]phenyl}methyl)-3,3-dimethylurea] | 8 µM (≈ 2.89 µg/mL) | 7 µM | ≥ 100 µM | –
31 | COC(=O)CCc1ccc(Oc2nc3ccc(Cl)cc3s2)cc1 [NZ-280, methyl 3-{4-[(6-chloro-1,3-benzothiazol-2-yl)oxy]phenyl}propanoate] | 6 µM (≈ 2.09 µg/mL) | – | – | inhibition at 20 µM (Mtb AccD6): 50%
32 | Clc1ccc2nc(Oc3ccc(OCc4ncco4)cc3)cnc2c1 [NZ-271, 6-chloro-2-[4-(1,3-oxazol-2-ylmethoxy)phenoxy]quinoxaline] | > 50 µM | 11.6 µM | – | –
33 | CC(C)NC(=O)Cc1ccc(Oc2nc3ccc(F)cc3s2)cc1O [NZ-405, 2-{4-[(6-fluoro-1,3-benzothiazol-2-yl)oxy]-2-hydroxyphenyl}-N-(propan-2-yl)acetamide] | 17.5 µM (≈ 6.31 µg/mL) | 0.15 µM | – | –
34 | Clc1ccc2nc(Oc3ccccc3)sc2c1 [NZ-292, 6-chloro-2-phenoxy-1,3-benzothiazole] | 12 µM (≈ 3.14 µg/mL) | – | – | inhibition at 20 µM (Mtb AccD6): 42%
35 | CCOC(=O)[C@@H](C)Oc1ccc(Oc2nc3ccccc3s2)cc1 [NZ-252, ethyl (2R)-2-[4-(1,3-benzothiazol-2-yloxy)phenoxy]propanoate] | – | – | – | MIC (Mtb strain mc^2-7000): Not Soluble; IC50 (Mtb AccD6): Not Soluble
36 | CONC(=O)C(OC)c1ccc(Oc2nc3ccc(Cl)cc3s2)cc1 (stereo not drawn) [NZ-357, 2-{4-[(6-chloro-1,3-benzothiazol-2-yl)oxy]phenyl}-N,2-dimethoxyacetamide] | 20 µM (≈ 7.58 µg/mL) | 3.6 µM | ≥ 100 µM | –
37 | Cn1nnnc1COc1ccc(Oc2cnc3cc(Cl)ccc3n2)cc1 [NZ-270, 6-chloro-2-{4-[(1-methyl-1H-1,2,3,4-tetrazol-5-yl)methoxy]phenoxy}quinoxaline] | > 50 µM | 9.7 µM | – | –
38 | CC(C)(C)OC(=O)Nc1ccc(Oc2nc3ccc(Cl)cc3s2)cc1 [NZ-351, tert-butyl N-{4-[(6-chloro-1,3-benzothiazol-2-yl)oxy]phenyl}carbamate] | – | – | ≥ 100 µM | MIC (Mtb strain mc^2-7000): Not Active; IC50 (Mtb AccD6): Not Active
